In patent US20250136606A1, “MODULATORS OF TRPML, THEIR COMPOSITIONS AND METHODS OF USE” (Caraway Therapeutics, Inc., priority 2021, published 2025) one finds EC50 data, which are given here for 24 molecules.

In this experiment the target is TRPML1 (Homo sapiens, UniProt Q9GZU1). As to the kind of experiment: Fluorescent TRPML1 assay (Fluo4-AM calcium fluorescence in doxycycline-induced HEK-293 Trex cells). To be noted: fluorescent calcium assay. The class given is cell-based. As for the experimental part: HEK-293 Trex cells were stably transfected with a construct consisting of the human coding sequence for TRPML1 cloned into the […] plasmid pCDNA5 T/O. Mutations were introduced into the TRPML1 sequence to facilitate expression on the cell surface (Silvia Vergarajauregui, Rosa Puertollano, Traffic. 2006 March; 7(3): 337-353). Briefly, the cells are cultured in 150 mm round tissue culture dishes containing 20 mL of media. The day before the assay the cells are rinsed with DPBS-Ca—Mg and then treated briefly with Trypsin-EDTA. The Trypsin-EDTA is diluted with growth media, and cells are counted. 38×10^6 cells are re-plated into 150 mm round tissue culture dishes in media containing 0.5 ug/mL doxycycline to induce expression of hTRPML1.
The day of the experiment cells are lifted from the plates as above and collected by centrifugation. The cells are then suspended in dye loading buffer consisting of Ringer's solution supplemented with 0.1% Pluronic Acid and 1 micromolar Fluo4-AM dye. Cells are loaded for ˜60 minutes in the dark with occasional mixing. The cells are collected by centrifugation, the loading media aspirated, and the cells resuspended in 25 mL Ringer's solution and incubated ˜60 minutes in the dark. The cells are again collected by centrifugation, rinsed in Ringer's Solution and resuspended to […] in modified Ringer's solution containing 10 mM calcium.
Compounds are dissolved to a concentration of 10 millimolar with DMSO. Compound plates are created by dispensing compounds into 384 well black wall clear bottom plates (Greiner 781091). Positive and negative controls are included on each plate. Typically, different amounts of each compound are tested ranging from 100 nanoMoles (20 micromolar final concentration) decreasing in half-log steps to 31 picoMoles (6 nanomolar final concentration). Each concentration is typically tested in triplicate.
50 microliters of dye-loaded cells are dispensed into each well of the compound assay plate created above. The fluorescence in each well is then determined with an excitation wavelength of 480 nm and an emission wavelength of 540 nm using either a Molecular Devices SpectraMax multimode plate reader or a Hamamatsu FDSS/uCell plate imager.
The resulting fluorescence for each well is exported as an ascii file and loaded into our LIMS for analysis. The percent activity of each compound at each concentration is determined by comparison to the positive and negative control wells included in each plate.
EC50 values were calculated using a non-linear regression of Prism. In the table, “A” indicates an EC50 of less than 100 nM, “B” indicates an EC50 range from 100 nM to 500 nM; “C” indicates an EC50 range from 500 nM to 2 μM; and “D” indicates an EC50 greater than 2 μM.

Some results are limits rather than exact numbers.

Chain of TRPML1 (Q9GZU1 whole entry L15A/L16A/L577A/L578A, form open): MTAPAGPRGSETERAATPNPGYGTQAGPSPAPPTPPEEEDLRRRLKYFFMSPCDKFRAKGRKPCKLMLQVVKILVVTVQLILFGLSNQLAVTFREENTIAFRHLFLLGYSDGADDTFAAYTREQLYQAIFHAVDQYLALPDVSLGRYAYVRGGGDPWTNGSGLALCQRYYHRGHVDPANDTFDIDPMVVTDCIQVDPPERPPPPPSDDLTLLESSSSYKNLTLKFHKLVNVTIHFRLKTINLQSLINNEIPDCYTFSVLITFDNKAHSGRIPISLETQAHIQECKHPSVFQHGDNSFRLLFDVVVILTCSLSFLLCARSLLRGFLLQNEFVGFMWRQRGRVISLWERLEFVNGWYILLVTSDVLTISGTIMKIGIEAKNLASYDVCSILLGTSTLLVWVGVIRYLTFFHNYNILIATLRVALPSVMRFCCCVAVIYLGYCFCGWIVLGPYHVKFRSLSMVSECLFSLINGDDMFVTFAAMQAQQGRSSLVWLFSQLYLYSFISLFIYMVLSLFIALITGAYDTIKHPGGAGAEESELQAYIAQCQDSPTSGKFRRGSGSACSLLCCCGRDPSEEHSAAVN

By EC50 is commonly meant the concentration at which the effect is half-maximal. Consider `CC(C)(C)OC(=O)N1CCN(c2ncnc3c2c(C2CC2)cn3-c2cc(F)cc(F)c2)C[C@@H]1C(F)(F)F` [Compound 276, tert-butyl (R)-4-(5-cyclopropyl-7-(3,5-difluorophenyl)-7H-pyrrolo[2,3-d]pyrimidin-4-yl)-2-(trifluoromethyl)piperazine-1-carboxylate], for which the half-maximal effective concentration (EC50) is under 100 nM.
The figure for `C[C@@H]1CN(c2ncnc3c2c(N2CCCC2)cn3-c2cccc(C#N)c2)CCN1C(=O)OC(C)(C)C` [Compound 277, tert-butyl (R)-4-(7-(3-cyanophenyl)-5-(pyrrolidin-1-yl)-7H-pyrrolo[2,3-d]pyrimidin-4-yl)-2-methylpiperazine-1-carboxylate] is under 100 nM.
The figure for `COc1cccc(-n2cc(-c3ccccn3)c3c(N4CCN(C(=O)OC(C)(C)C)C[C@@H]4C)ncnc32)c1` [Compound 278, tert-butyl (S)-4-(7-(3-methoxyphenyl)-5-(pyridin-2-yl)-7H-pyrrolo[2,3-d]pyrimidin-4-yl)-3-methylpiperazine-1-carboxylate] is 500 to 2000 nM; for `C[C@H]1CN(C(=O)OC(C)(C)C)CCN1c1ncnc2c1c(-c1ccccn1)cn2-c1cccc(OC(F)(F)F)c1` [Compound 279, tert-butyl (S)-3-methyl-4-(5-(pyridin-2-yl)-7-(3-(trifluoromethoxy)phenyl)-7H-pyrrolo[2,3-d]pyrimidin-4-yl)piperazine-1-carboxylate] it is 100 to 500 nM; for `C[C@H]1CN(C(=O)OC(C)(C)C)CCN1c1ncnc2c1c(-c1ccccn1)cn2-c1cccc(C#N)c1` [Compound 280, tert-butyl (S)-4-(7-(3-cyanophenyl)-5-(pyridin-2-yl)-7H-pyrrolo[2,3-d]pyrimidin-4-yl)-3-methylpiperazine-1-carboxylate] it is 100 to 500 nM.
The figure for `C[C@H]1CN(C(=O)OC(C)(C)C)CCN1c1ncnc2c1c(-c1cccnc1)cn2-c1cccc(OC(F)(F)F)c1` [Compound 281, tert-butyl-(S)-3-methyl-4-(5-(pyridin-3-yl)-7-(3-(trifluoromethoxy)phenyl)-7H-pyrrolo [2,3-d]pyrimidin-4-yl)piperazine-1-carboxylate] is under 100 nM.
In the case of `C[C@H]1CN(C(=O)OC(C)(C)C)CCN1c1ncnc2c1c(-c1cccnc1)cn2-c1cccc(C#N)c1` [Compound 282, tert-butyl-(S)-4-(7-(3-cyanophenyl)-5-(pyridin-3-yl)-7H-pyrrolo[2,3-d]pyrimidin-4-yl)-3-methylpiperazine-1-carboxylate], the concentration for a half-maximal effect (EC50) was in the range of 100 to 500 nM.
Regarding `C[C@H]1CN(C(=O)OC(C)(C)C)CCN1c1ncnc2c1c(C1CCOCC1)nn2-c1cccc(Cl)c1` [Compound 284, tert-butyl (S)-4-(1-(3-chlorophenyl)-3-(tetrahydro-2H-pyran-4-yl)-1H-pyrazolo[3,4-d]pyrimidin-4-yl)-3-methylpiperazine-1-carboxylate], the half-maximal effective concentration (EC50) is 500 to 2000 nM.
Consider `C[C@H]1CN(C(=O)OC(C)(C)C)CCN1c1ncnc2c1c(N1CCCC1)cn2-c1cccc(C#N)c1` [Compound 285, tert-butyl (S)-4-(7-(3-cyanophenyl)-5-(pyrrolidin-1-yl)-7H-pyrrolo[2,3-d]pyrimidin-4-yl)-3-methylpiperazine-1-carboxylate], for which the EC50 was under 100 nM.
The figure for `C[C@@H]1CCCN1c1cn(-c2cccc(Cl)c2)c2ncnc(N3CCN(C(=O)OC(C)(C)C)C[C@@H]3C)c12` [Compound 286, tert-butyl (S)-4-(7-(3-chlorophenyl)-5-((R)-2-methylpyrrolidin-1-yl)-7H-pyrrolo[2,3-d]pyrimidin-4-yl)-3-methylpiperazine-1-carboxylate] is 100 to 500 nM; for `C[C@@H]1CN(c2ncnc3c2c(N2CCCCC2)cn3-c2cccc(Cl)c2)CCN1C(=O)OC(C)(C)C` [Compound 287, tert-butyl (R)-4-(7-(3-chlorophenyl)-5-(piperidin-1-yl)-7H-pyrrolo[2,3-d]pyrimidin-4-yl)-2-methylpiperazine-1-carboxylate] it is under 100 nM.
`COc1cc(F)cc(-n2cc(C3CC3)c3c(N4CCN(C(=O)OC(C)(C)C)C[C@@H]4C)ncnc32)c1` [Compound 288, tert-butyl (S)-4-(5-cyclopropyl-7-(3-fluoro-5-methoxyphenyl)-7H-pyrrolo[2,3-d]pyrimidin-4-yl)-3-methylpiperazine-1-carboxylate]: the concentration giving a half-maximal response (EC50) fell in the range of 100 to 500 nM.
Turning to `COc1cc(OC)cc(-n2cc(C3CC3)c3c(N4CCN(C(=O)OC(C)(C)C)C[C@@H]4C)ncnc32)c1` [Compound 289, tert-butyl (S)-4-(5-cyclopropyl-7-(3,5-dimethoxyphenyl)-7H-pyrrolo[2,3-d]pyrimidin-4-yl)-3-methylpiperazine-1-carboxylate], the 50% effective concentration (EC50) was 100 to 500 nM.
`C[C@H]1CN(C(=O)OC(C)(C)C)CCN1c1ncnc2c1c(C1CC1)cn2-c1ccc(F)c(C#N)c1` [Compound 290, tert-butyl (S)-4-(7-(3-cyano-4-fluorophenyl)-5-cyclopropyl-7H-pyrrolo[2,3-d]pyrimidin-4-yl)-3-methylpiperazine-1-carboxylate]: the 50% effective concentration (EC50) was under 100 nM.
Next, `C[C@H]1CN(C(=O)OC(C)(C)C)CCN1c1ncnc2c1c(C1CC1)cn2-c1cc(F)cc(C#N)c1` [Compound 291, tert-butyl (S)-4-(7-(3-cyano-5-fluorophenyl)-5-cyclopropyl-7H-pyrrolo[2,3-d]pyrimidin-4-yl)-3-methylpiperazine-1-carboxylate]: under 100 nM.
The figure for `C[C@H]1CN(C(=O)OC(C)(C)C)CCN1c1ncnc2c1c(C1CC1)cn2-c1cc(C#N)cc(C#N)c1` [Compound 292, tert-butyl (S)-4-(5-cyclopropyl-7-(3,5-dicyanophenyl)-7H-pyrrolo[2,3-d]pyrimidin-4-yl)-3-methylpiperazine-1-carboxylate] is 100 to 500 nM.
The figure for `COc1cccc(-n2cc(-c3nccnc3C)c3c(N4CCN(C(=O)OC(C)(C)C)C[C@@H]4C)ncnc32)c1` [Compound 293, tert-butyl (S)-4-(7-(3-methoxyphenyl)-5-(3-methylpyrazin-2-yl)-7H-pyrrolo[2,3-d]pyrimidin-4-yl)-3-methylpiperazine-1-carboxylate] is 500 to 2000 nM; for `Cc1nccnc1-c1cn(-c2cccc(C#N)c2)c2ncnc(N3CCN(C(=O)OC(C)(C)C)C[C@@H]3C)c12` [Compound 294, tert-butyl (S)-4-(7-(3-cyanophenyl)-5-(3-methylpyrazin-2-yl)-7H-pyrrolo[2,3-d]pyrimidin-4-yl)-3-methylpiperazine-1-carboxylate] it is 500 to 2000 nM; for `COc1cccc(-n2cc(-c3cnccn3)c3c(N4CCN(C(=O)OC(C)(C)C)C[C@@H]4C)ncnc32)c1` [Compound 295, tert-butyl (S)-4-(7-(3-methoxyphenyl)-5-(pyrazin-2-yl)-7H-pyrrolo[2,3-d]pyrimidin-4-yl)-3-methylpiperazine-1-carboxylate] it is 500 to 2000 nM.
Consider `C[C@H]1CN(C(=O)OC(C)(C)C)CCN1c1ncnc2c1c(-c1cnccn1)cn2-c1cccc(OC(F)(F)F)c1` [Compound 296, tert-butyl (S)-3-methyl-4-(5-(pyrazin-2-yl)-7-(3-(trifluoromethoxy)phenyl)-7H-pyrrolo[2,3-d]pyrimidin-4-yl)piperazine-1-carboxylate], for which the EC50 was 100 to 500 nM.
The figure for `C[C@H]1CN(C(=O)OC(C)(C)C)CCN1c1ncnc2c1c(-c1cnccn1)cn2-c1cccc(C#N)c1` [Compound 297, tert-butyl (S)-4-(7-(3-cyanophenyl)-5-(pyrazin-2-yl)-7H-pyrrolo[2,3-d]pyrimidin-4-yl)-3-methylpiperazine-1-carboxylate] is 500 to 2000 nM; for `C[C@H]1CN(C(=O)OC(C)(C)C)CCN1c1ncnc2c1c(N1CCC[C@H]1CO)cn2-c1cccc(Cl)c1` [Compound 298, tert-butyl (S)-4-(7-(3-chlorophenyl)-5-((S)-2-(hydroxymethyl)pyrrolidin-1-yl)-7H-pyrrolo[2,3-d]pyrimidin-4-yl)-3-methylpiperazine-1-carboxylate] it is 500 to 2000 nM.
Next, `C[C@H]1CN(C(=O)OC(C)(C)C)CCN1c1ncnc2c1c(N1CCCC1)cn2-c1cc(F)c(F)c(F)c1` [Compound 356, tert-butyl (S)-3-methyl-4-(5-(pyrrolidin-1-yl)-7-(3,4,5-trifluorophenyl)-7H-pyrrolo[2,3-d]pyrimidin-4-yl)piperazine-1-carboxylate]: under 100 nM.
Next, `C[C@H]1CN(C(=O)OC(C)(C)C)CCN1c1ncnc2c1c(C1CC1)nn2-c1cccc(C#N)c1` [Compound 357, tert-butyl (S)-4-(1-(3-cyanophenyl)-3-cyclopropyl-1H-pyrazolo[3,4-d]pyrimidin-4-yl)-3-methylpiperazine-1-carboxylate]: under 100 nM.
